Measured values from publication PMC3062105 (Clinical infectious diseases : an official publication of …, 2011).
Several values for one entry are separate records, joined by “and”; a condition that tells them apart may be missing. Equal entries are not always repeated.

System: influenza viruses
Parameters: species or system human (pediatric influenza patients)
Details: human, in vivo

Row | SMILES | Virus isolation rate from specimens
1 | CCOC(=O)C1=C[C@@H](OC(CC)CC)[C@H](NC(C)=O)[C@@H](N)C1 [oseltamivir] | 68% and 69%
2 | CC(=O)N[C@H]1[C@H]([C@H](O)[C@H](O)CO)OC(C(=O)O)=C[C@@H]1N=C(N)N [zanamivir] | 50% and 39%
